Results: article PMC6472001, “Phenolic Compounds from Humulus lupulus as Natural Antimicrobial Products: New Weapons in the Fight against Methicillin Resistant Staphylococcus aureus, Leishmania mexicana and Trypanosoma brucei Strains” (Molecules, 2019)

How the values were obtained:
Assay type in all cases: cell-based
[1] = tested on: Staphylococcus epidermidis 5001; test: First screening, agar dilution MIC
Protocol: (§1) Clinical bacterial isolates from human samples collected in Lille (France) and some collection strains were used. The first screening step on pathogenic bacteria was carried out with crude hydro-alcoholic extracts of different hop parts (Table 1). The second screening was performed using sub-extracts of cones on Gram-positive bacteria, including methicillin-sensitive Staphylococcus aureus (MSSA) and methicillin-resistant Staphylococcus aureus […] (Table 2). These tests were carried out on Petri dishes, Mueller-Hinton Agar (MHA) (Oxoid, UK) was mixed with the plant extract solution in MeOH at 5% (solvent control: 5% MeOH). Final extract concentrations in Petri dishes ranged from 1250 to 4.9 µg/mL. A multi-headed inoculator allowed spotting bacterial strains at 10^5 CFU/mL in cysteinated Ringer (CR) solution (Merck®, France). Minimal Inhibitory Concentrations (MICs) were visually determined after 24 h of incubation at 37 °C.

[2] = tested on: Klebsiella pneumoniae 11017; test: First screening, agar dilution MIC
Protocol: as §1

[3] = tested on: Serratia marcescens 11057; test: First screening, agar dilution MIC
Protocol: as §1

[4] = tested on: Mycobacterium smegmatis 5003; test: First screening, agar dilution MIC
Protocol: as §1

[5] = tested on: Staphylococcus epidermidis 10282; test: First screening, agar dilution MIC
Protocol: as §1

[6] = tested on: Serratia marcescens 11056; test: First screening, agar dilution MIC
Protocol: as §1

[7] = tested on: Escherichia coli ATCC 25922; test: First screening, agar dilution MIC
Protocol: as §1

[8] = tested on: Pseudomonas aeruginosa ATCC 27583; test: First screening, agar dilution MIC
Protocol: as §1

[9] = tested on: Enterobacter cloacae 11053; test: First screening, agar dilution MIC
Protocol: as §1

[10] = tested on: Escherichia coli 8138; test: First screening, agar dilution MIC
Protocol: as §1

[11] = tested on: Providencia stuartii 11038; test: First screening, agar dilution MIC
Protocol: as §1

[12] = tested on: Citrobacter freundii 11042; test: First screening, agar dilution MIC
Protocol: as §1

[13] = tested on: Klebsiella pneumoniae 11016; test: First screening, agar dilution MIC
Protocol: as §1

[14] = tested on: Enterobacter cloacae 11051; test: First screening, agar dilution MIC
Protocol: as §1

[15] = tested on: Stenotrophomonas maltophilia; test: First screening, agar dilution MIC
Protocol: as §1

[16] = tested on: Streptococcus agalactiae T25-7; test: First screening, agar dilution MIC
Protocol: as §1

[17] = tested on: Staphylococcus lugdunensis T26A3; test: First screening, agar dilution MIC
Protocol: as §1

[18] = tested on: Citrobacter freundii 11041; test: First screening, agar dilution MIC
Protocol: as §1

[19] = tested on: Staphylococcus aureus 8146; test: First screening, agar dilution MIC
Protocol: as §1

[20] = tested on: Acinetobacter baumannii 9011; test: First screening, agar dilution MIC
Protocol: as §1

[21] = tested on: Proteus mirabilis 11060; test: First screening, agar dilution MIC
Protocol: as §1

[22] = tested on: Escherichia coli 8157; test: First screening, agar dilution MIC
Protocol: as §1

[23] = tested on: Salmonella sp. 11033; test: First screening, agar dilution MIC
Protocol: as §1

[24] = tested on: Staphylococcus warneri T12A12; test: First screening, agar dilution MIC
Protocol: as §1

[25] = tested on: Corynebacterium T25-17; test: First screening, agar dilution MIC
Protocol: as §1

[26] = tested on: Acinetobacter baumannii 9010; test: First screening, agar dilution MIC
Protocol: as §1

[27] = tested on: Pseudomonas aeruginosa 8131; test: First screening, agar dilution MIC
Protocol: as §1

[28] = tested on: Enterococcus sp. 8153; test: First screening, agar dilution MIC
Protocol: as §1

[29] = tested on: Enterobacter cloacae 11050; test: First screening, agar dilution MIC
Protocol: as §1

[30] = tested on: Streptococcus dysgalactiae T46C14; test: First screening, agar dilution MIC
Protocol: as §1

[31] = tested on: Staphylococcus aureus 8147; test: First screening, agar dilution MIC
Protocol: as §1

[32] = tested on: Enterococcus faecalis C159-6; test: First screening, agar dilution MIC
Protocol: as §1

[33] = tested on: Streptococcus agalactiae T53C2; test: First screening, agar dilution MIC
Protocol: as §1

[34] = tested on: Staphylococcus epidermidis 5001; test: Second screening, agar dilution MIC; settings: Table 2
Protocol: as §1

[35] = tested on: Enterococcus faecalis T26-B7; test: Second screening, agar dilution MIC
Protocol: as §1

[36] = tested on: Streptococcus agalactiae T25.7; test: Second screening, agar dilution MIC
Protocol: as §1

[37] = tested on: Streptococcus agalactiae T40A2; test: Second screening, agar dilution MIC
Protocol: as §1

[38] = tested on: Staphylococcus aureus T26A4; test: Second screening, agar dilution MIC
Protocol: as §1

[39] = tested on: Staphylococcus aureus T25.9; test: Second screening, agar dilution MIC
Protocol: as §1

[40] = tested on: Staphylococcus pettenkoferi T3.3; test: Second screening, agar dilution MIC
Protocol: as §1

[41] = tested on: Enterococcus faecalis T37A4; test: Second screening, agar dilution MIC
Protocol: as §1

[42] = tested on: Enterococcus faecalis T39-C11; test: Second screening, agar dilution MIC
Protocol: as §1

[43] = tested on: Streptococcus agalactiae T38.2; test: Second screening, agar dilution MIC
Protocol: as §1

[44] = tested on: Streptococcus agalactiae 13225; test: Second screening, agar dilution MIC
Protocol: as §1

[45] = tested on: Staphylococcus lugdunensis T26A3; test: Second screening, agar dilution MIC; settings: Table 2
Protocol: as §1

[46] = tested on: Staphylococcus aureus T28.1; test: Second screening, agar dilution MIC
Protocol: as §1

[47] = tested on: Staphylococcus aureus T1.1; test: Second screening, agar dilution MIC
Protocol: as §1

[48] = tested on: Staphylococcus aureus T47A12; test: Second screening, agar dilution MIC
Protocol: as §1

[49] = tested on: Streptococcus agalactiae 13226; test: Second screening, agar dilution MIC
Protocol: as §1

[50] = tested on: Corynebacterium T25-17; test: Second screening, agar dilution MIC; settings: Table 2
Protocol: as §1

[51] = tested on: Enterococcus faecalis T34-2; test: Second screening, agar dilution MIC
Protocol: as §1

[52] = tested on: Staphylococcus aureus T25.10; test: Second screening, agar dilution MIC
Protocol: as §1

[53] = tested on: Staphylococcus saprophyticus 08237; test: Second screening, agar dilution MIC
Protocol: as §1

[54] = tested on: Staphylococcus aureus T6.7; test: Second screening, agar dilution MIC
Protocol: as §1

[55] = tested on: Staphylococcus aureus CIP 224; test: Second screening, agar dilution MIC
Protocol: as §1

[56] = tested on: Staphylococcus aureus 8147; test: Second screening, agar dilution MIC; settings: Table 2
Protocol: as §1

[57] = tested on: Staphylococcus aureus T25.3; test: Second screening, agar dilution MIC
Protocol: as §1

[58] = tested on: Staphylococcus aureus T36B1; test: Second screening, agar dilution MIC
Protocol: as §1

Compound: CNC(C)C1CCC(N)C(OC2C(N)CC(N)C(OC3OCC(C)(O)C(NC)C3O)C2O)O1 (stereo not shown) [GEN, Gentamicin]
- Susceptibility to GEN [1]: S (Gentamicin (GEN) S ≤ 4)
- Susceptibility to GEN [2]: S (Gentamicin (GEN) S ≤ 4)
- Susceptibility to GEN [3]: R (R > 8)
- Susceptibility to GEN [4]: S (Gentamicin (GEN) S ≤ 4)
- Susceptibility to GEN [5]: S (Gentamicin (GEN) S ≤ 4)
- Susceptibility to GEN [6]: S (Gentamicin (GEN) S ≤ 4)
- Susceptibility to GEN [7]: S (Gentamicin (GEN) S ≤ 4)
- Susceptibility to GEN [8]: R (R > 8)
- Susceptibility to GEN [9]: S (Gentamicin (GEN) S ≤ 4)
- Susceptibility to GEN [10]: S (Gentamicin (GEN) S ≤ 4)
- Susceptibility to GEN [11]: S (Gentamicin (GEN) S ≤ 4)
- Susceptibility to GEN [12]: S (Gentamicin (GEN) S ≤ 4)
- Susceptibility to GEN [13]: S (Gentamicin (GEN) S ≤ 4)
- Susceptibility to GEN [14]: R (R > 8)
- Susceptibility to GEN [15]: S (Gentamicin (GEN) S ≤ 4)
- Susceptibility to GEN [16]: R (R > 8)
- Susceptibility to GEN [17]: S (Gentamicin (GEN) S ≤ 4)
- Susceptibility to GEN [18]: S (Gentamicin (GEN) S ≤ 4)
- Susceptibility to GEN [19]: S (Gentamicin (GEN) S ≤ 4)
- Susceptibility to GEN [20]: R (R > 8)
- Susceptibility to GEN [21]: S (Gentamicin (GEN) S ≤ 4)
- Susceptibility to GEN [22]: S (Gentamicin (GEN) S ≤ 4)
- Susceptibility to GEN [23]: S (Gentamicin (GEN) S ≤ 4)
- Susceptibility to GEN [24]: S (Gentamicin (GEN) S ≤ 4)
- Susceptibility to GEN [25]: S (Gentamicin (GEN) S ≤ 4)
- Susceptibility to GEN [26]: S (Gentamicin (GEN) S ≤ 4)
- Susceptibility to GEN [27]: S (Gentamicin (GEN) S ≤ 4)
- Susceptibility to GEN [28]: R (R > 8)
- Susceptibility to GEN [29]: S (Gentamicin (GEN) S ≤ 4)
- Susceptibility to GEN [30]: S (Gentamicin (GEN) S ≤ 4)
- Susceptibility to GEN [31]: S (Gentamicin (GEN) S ≤ 4)
- Susceptibility to GEN [32]: R (R > 8)
- Susceptibility to GEN [33]: S (Gentamicin (GEN) S ≤ 4)
- Susceptibility to GEN [34]: S (Gentamicin (GEN) S ≤ 4)
- Susceptibility to GEN [35]: R (R > 8)
- Susceptibility to GEN [36]: I
- Susceptibility to GEN [37]: S (Gentamicin (GEN) S ≤ 4)
- Susceptibility to GEN [38]: S (Gentamicin (GEN) S ≤ 4)
- Susceptibility to GEN [39]: S (Gentamicin (GEN) S ≤ 4)
- Susceptibility to GEN [40]: S (Gentamicin (GEN) S ≤ 4)
- Susceptibility to GEN [41]: R (R > 8)
- Susceptibility to GEN [42]: S (Gentamicin (GEN) S ≤ 4)
- Susceptibility to GEN [43]: S (Gentamicin (GEN) S ≤ 4)
- Susceptibility to GEN [44]: S (Gentamicin (GEN) S ≤ 4)
- Susceptibility to GEN [45]: S (Gentamicin (GEN) S ≤ 4)
- Susceptibility to GEN [46]: S (Gentamicin (GEN) S ≤ 4)
- Susceptibility to GEN [47]: S (Gentamicin (GEN) S ≤ 4)
- Susceptibility to GEN [48]: S (Gentamicin (GEN) S ≤ 4)
- Susceptibility to GEN [49]: S (Gentamicin (GEN) S ≤ 4)
- Susceptibility to GEN [50]: S (Gentamicin (GEN) S ≤ 4)
- Susceptibility to GEN [51]: S (Gentamicin (GEN) S ≤ 4)
- Susceptibility to GEN [52]: S (Gentamicin (GEN) S ≤ 4)
- Susceptibility to GEN [53]: S (Gentamicin (GEN) S ≤ 4)
- Susceptibility to GEN [54]: S (Gentamicin (GEN) S ≤ 4)
- Susceptibility to GEN [55]: S (Gentamicin (GEN) S ≤ 4)
- Susceptibility to GEN [56]: S (Gentamicin (GEN) S ≤ 4)
- Susceptibility to GEN [57]: S (Gentamicin (GEN) S ≤ 4)
- Susceptibility to GEN [58]: S (Gentamicin (GEN) S ≤ 4)
